Measurements taken from article PMC9006954, “Computer-Based Immunoinformatic Analysis to Predict Candidate T-Cell Epitopes for SARS-CoV-2 Vaccine Design” (Frontiers in Immunology, 2022).
pKd: −log10 of the molar value. Where no end group is shown, it is not given here.

Target: T1, HLA-A*11:01 protein (Homo sapiens, UniProt P04439, A114D/D185E/E176A/F33Y/L180Q/S129P/T187R)
T1 construct: biotin (biotinylated)
Assay: Bio-Layer Interferometry (BLI) affinity test, Octet R8
Details: Octet R8, SSA sensors, peptides 100-3.125 µM in PBST (PBS+0.02%Tween20+1% DMSO), balance, binding, dissociation 60 s each

Sequence | pKd | KD
KCYGVSPTK [reference compound] | 4.63 | –
SQCVNLTTR [reference compound] | – | Non-binding
FSTFKCYGV [reference compound] | 4.54 | –
GVSPTKLNDL [reference compound] | 3.18 | –
